# Molecular target: human NEU3 (Homo sapiens (Human), UniProt Q9UQ49)
# Assay: human NEU3 sialidase inhibition
# Settings: read-out: NEU3 IC50; human NEU3
# Chain of human NEU3 (Q9UQ49 whole entry): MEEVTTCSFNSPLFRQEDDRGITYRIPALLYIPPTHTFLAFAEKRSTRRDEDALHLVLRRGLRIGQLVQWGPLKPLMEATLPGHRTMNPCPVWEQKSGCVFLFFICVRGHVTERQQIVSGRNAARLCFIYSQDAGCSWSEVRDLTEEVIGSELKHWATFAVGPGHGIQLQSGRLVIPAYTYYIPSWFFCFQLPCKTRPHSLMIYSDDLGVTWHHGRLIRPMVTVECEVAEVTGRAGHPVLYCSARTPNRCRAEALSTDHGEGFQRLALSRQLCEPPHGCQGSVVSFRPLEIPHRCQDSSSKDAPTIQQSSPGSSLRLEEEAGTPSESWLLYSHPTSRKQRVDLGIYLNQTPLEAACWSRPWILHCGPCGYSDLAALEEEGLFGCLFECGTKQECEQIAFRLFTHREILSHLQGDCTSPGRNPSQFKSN
row,Compound,IC50 [µM]
1,CCOc1cn(C[C@@H](O)[C@@H](O)[C@@H]2OC(C(=O)O)=C[C@H](O)[C@H]2NC(C)=O)nn1 [Compound 18],300 ± 200
2,CC(=O)N[C@H]1[C@H]([C@H](O)[C@H](O)Cn2cc(COc3ccccc3)nn2)OC(C(=O)O)=C[C@@H]1O [Compound 20],45 ± 3
3,CC(=O)N[C@H]1[C@H]([C@H](O)[C@H](O)Cn2cc(CCO)nn2)OC(C(=O)O)=C[C@@H]1O [Compound 22],400 ± 600
4,CC(=O)NC[C@H](O)[C@H](O)[C@@H]1OC(C(=O)O)=C[C@H](O)[C@H]1NC(C)=O [Compound 2],> 1000
5,CCOC(OCC)c1cn(C[C@@H](O)[C@@H](O)[C@@H]2OC(C(=O)O)=C[C@H](O)[C@H]2NC(C)=O)nn1 [Compound 19],130 ± 20
6,CCC(CC)O[C@@H]1CC(C(=O)O)C=C(n2cc(C(C)(C)O)nn2)[C@H]1NC(C)=O (stereo partly shown) [Compound 30],640 ± 210
7,CC(=O)N[C@H]1[C@H]([C@H](O)[C@H](O)Cn2cc(-c3ccccc3)nn2)OC(C(=O)O)=C[C@@H]1O [Compound 16],20 ± 10
8,CC(=O)N[C@H]1[C@H]([C@H](O)[C@H](O)Cn2cc(C(C)(C)O)nn2)OC(C(=O)O)=C[C@@H]1O [Compound 24],300 ± 500

# Further lines, results first:
row,IC50 [µM],Compound
1,39 ± 1,CC(=O)N[C@H]1C([C@@H](O)[C@@H](O)Cn2cc(CCCO)nn2)OC(C(=O)O)=C[C@@H]1O (stereo partly shown) [Compound 56]
2,5.5 ± 0.6,CC(=O)N[C@H]1C([C@@H](O)[C@@H](O)Cn2cc(OCc3ccccc3)nn2)OC(C(=O)O)=C[C@@H]1O (stereo partly shown) [Compound 53]
3,90 ± 10,CCOc1cn(C[C@H](O)[C@H](O)C2OC(C(=O)O)=C[C@H](O)[C@H]2NC(C)=O)nn1 (stereo partly shown) [Compound 52]
4,4.6 ± 0.2,CC(=O)N[C@H]1C([C@@H](O)[C@@H](O)Cn2cc(-c3ccccc3)nn2)OC(C(=O)O)=C[C@@H]1O (stereo partly shown) [Compound 51]

# Molecular target: human NEU2 (Homo sapiens (Human), UniProt Q9Y3R4)
# Sequence (Q9Y3R4 whole entry): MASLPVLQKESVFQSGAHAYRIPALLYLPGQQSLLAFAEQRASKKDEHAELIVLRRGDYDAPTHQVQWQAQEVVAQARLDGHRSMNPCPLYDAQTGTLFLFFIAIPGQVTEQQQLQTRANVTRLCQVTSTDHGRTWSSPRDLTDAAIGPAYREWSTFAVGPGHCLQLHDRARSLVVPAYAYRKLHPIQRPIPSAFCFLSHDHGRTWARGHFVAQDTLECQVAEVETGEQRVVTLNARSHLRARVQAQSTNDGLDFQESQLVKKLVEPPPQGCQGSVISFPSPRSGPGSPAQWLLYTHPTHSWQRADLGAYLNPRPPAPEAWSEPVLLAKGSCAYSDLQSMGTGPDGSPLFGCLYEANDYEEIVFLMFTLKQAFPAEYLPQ
# Assay: human NEU2 sialidase inhibition
# Settings: not given
row,Ki [µM],Compound
1,740,CC(=O)N[C@@H]1[C@@H](O)C=C(C(=O)O)C[C@H]1OCCCO [Compound 13]
2,880,CC(=O)N[C@@H]1[C@@H](O)C=C(C(=O)O)C[C@H]1OCC(C)C [Compound 12]
3,1400,CC(=O)N[C@@H]1[C@@H](O)C=C(C(=O)O)C[C@H]1OCC(O)CO (stereo partly shown) [Compound 14]

# Same assay, conditions: read-out: NEU2 IC50; human NEU2
row,Compound,IC50 [µM]
1,CC(=O)N[C@H]1[C@H]([C@H](O)[C@H](O)CN=[N+]=[N-])OC(C(=O)O)=C[C@@H]1O [Compound 32],31 ± 6
2,"2,6-Anhydro-3,5-dideoxy-5-glycolylamido-D-glycero-D-galactonon-2-enonic acid [Compound 39]",34 ± 4
3,[N-]=[N+]=NC[C@@H](O)[C@@H](O)[C@@H]1OC(C(=O)O)=C[C@H](O)[C@H]1NC(=O)CO [Compound 33],190
4,CC(=O)N[C@H]1C([C@@H](O)[C@@H](O)Cn2cc(OCc3ccccc3)nn2)OC(C(=O)O)=C[C@@H]1O (stereo partly shown) [Compound 53],800 ± 70
5,COC[C@@H](O)[C@@H](O)[C@@H]1OC(C(=O)O)=C[C@H](O)[C@H]1NC(C)=O [Compound 35],410

# Molecular target: human NEU4 (Homo sapiens (Human), UniProt Q8WWR8)
# Sequence (Q8WWR8 whole entry): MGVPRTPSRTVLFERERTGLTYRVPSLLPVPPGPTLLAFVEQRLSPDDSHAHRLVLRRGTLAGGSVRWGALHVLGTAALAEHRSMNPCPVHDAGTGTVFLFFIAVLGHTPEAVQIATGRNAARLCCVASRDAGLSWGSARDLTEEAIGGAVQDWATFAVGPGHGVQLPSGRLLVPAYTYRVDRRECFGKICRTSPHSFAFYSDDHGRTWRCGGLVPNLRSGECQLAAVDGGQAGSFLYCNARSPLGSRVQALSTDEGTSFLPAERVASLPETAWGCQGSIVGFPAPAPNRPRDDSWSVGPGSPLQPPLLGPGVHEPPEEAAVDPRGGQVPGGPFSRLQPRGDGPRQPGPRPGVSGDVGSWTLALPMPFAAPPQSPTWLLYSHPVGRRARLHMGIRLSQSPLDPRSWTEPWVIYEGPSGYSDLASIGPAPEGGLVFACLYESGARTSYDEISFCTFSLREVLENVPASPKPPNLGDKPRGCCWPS
# Assay: human NEU4 sialidase inhibition
# Settings: not given
row,IC50 [µM],Compound
1,250 ± 40,O=C(Cn1cc(-c2ccccc2)nn1)N[C@@H]1C(O)C=C(C(=O)O)OC1C(O)C(O)CO (stereo partly shown) [Compound 50]

# Same assay, conditions: read-out: NEU4 IC50; human NEU4
row,Compound,IC50 [µM]
1,CCCCC(=O)NC[C@H](O)[C@H](O)[C@@H]1OC(C(=O)O)=C[C@H](O)[C@H]1NC(C)=O [Compound 8],> 1000
2,CC(=O)NC[C@H](O)[C@H](O)[C@@H]1OC(C(=O)O)=C[C@H](O)[C@H]1NC(C)=O [Compound 2],580

# Continued, values first:
row,IC50 [µM],Compound
1,4 ± 0.3,CC(=O)N[C@H]1C([C@@H](O)[C@@H](O)Cn2cc(C(C)(C)O)nn2)OC(C(=O)O)=C[C@@H]1O (stereo partly shown) [Compound 57]
2,2.1 ± 0.1,CC(=O)N[C@H]1C([C@@H](O)[C@@H](O)Cn2cc(CCCO)nn2)OC(C(=O)O)=C[C@@H]1O (stereo partly shown) [Compound 56]
3,1.7 ± 0.2,CC(=O)N[C@H]1C([C@@H](O)[C@@H](O)Cn2cc(OCc3ccccc3)nn2)OC(C(=O)O)=C[C@@H]1O (stereo partly shown) [Compound 53]
4,3.6 ± 0.3,CCOc1cn(C[C@H](O)[C@H](O)C2OC(C(=O)O)=C[C@H](O)[C@H]2NC(C)=O)nn1 (stereo partly shown) [Compound 52]
5,2.3 ± 0.2,CC(=O)N[C@H]1C([C@@H](O)[C@@H](O)Cn2cc(-c3ccccc3)nn2)OC(C(=O)O)=C[C@@H]1O (stereo partly shown) [Compound 51]

# Test system: human PBMC
# Assay: fibrocyte formation in human PBMC, serum-free medium
# Format: cell-based
# Settings: 5 days; 100 ng/ml sialidase, 10 μg/ml DANA or 1 μg/ml SAP
# Method: Human peripheral blood was collected from healthy adult volunteers who gave written consent and with specific approval from the Texas A&M University human subjects Institutional Review Board. Peripheral blood mononuclear cells (PBMC) were isolated from blood using Ficoll-Paque Plus (GE Healthcare Biosciences, Piscataway, NJ). Human PBMC were incubated in serum-free medium (FibroLife basal media (LM-0001, Lifeline Cell Technology, Walkersville, MD), supplemented with 10 mM HEPES (Sigma-Aldrich, St. Louis, MO), 1x non-essential amino acids (Sigma-Aldrich), 1 mM sodium pyruvate (Sigma-Aldrich), 2 mM glutamine (Invitrogen, Carlsbad, CA), 100 U/ml penicillin, 100 μg/ml streptomycin (Sigma-Aldrich), and 1x ITS-3 (Sigma-Aldrich) in the presence of absence of 100 ng/ml recombinant human sialidases (Origene, Rockville MD), 10 μg/ml DANA (Calbiochem, San Diego, CA), or 1 μg/ml human SAP (Calbiochem). After 5 days, fibrocytes were counted, and results are presented in FIG. 5.
row,Compound,fibrocyte formation / differentiation
1,"SAP: human SAP (Calbiochem), serum amyloid protein",No fibrocytes were detected

# Molecular target: human NEU1 (Homo sapiens (Human), UniProt Q99519)
# Assay: human NEU1 sialidase inhibition
# Settings: read-out: NEU1 IC50; human NEU1
row,IC50 [µM],Compound
1,> 1000,CC(=O)N[C@H]1C([C@@H](O)[C@@H](O)Cn2cc(C(C)(C)O)nn2)OC(C(=O)O)=C[C@@H]1O (stereo partly shown) [Compound 57]
2,660 ± 20,CC(=O)N[C@H]1C([C@@H](O)[C@@H](O)Cn2cc(CCCO)nn2)OC(C(=O)O)=C[C@@H]1O (stereo partly shown) [Compound 56]
3,170 ± 20,CCOc1cn(C[C@H](O)[C@H](O)C2OC(C(=O)O)=C[C@H](O)[C@H]2NC(C)=O)nn1 (stereo partly shown) [Compound 52]
4,200 ± 30,CC(=O)N[C@H]1C([C@@H](O)[C@@H](O)Cn2cc(-c3ccccc3)nn2)OC(C(=O)O)=C[C@@H]1O (stereo partly shown) [Compound 51]
5,58,CC(=O)NC[C@H](O)[C@H](O)[C@@H]1OC(C(=O)O)=C[C@H](O)[C@H]1NC(C)=O [Compound 2]
